Measured values as given in PubChem BioAssay (NCI).
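48-hour exposure; five concentrations; linearly interpolated endpoints. At the TGI there is no net growth.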

Experiments:
Test in all cases: DTP human tumour cell line panel, 48 h
786-0 renal = test system: 786-0 renal
A498 renal = test system: A498 renal
A549 NSCLC = test system: A549 NSCLC
ACHN renal = test system: ACHN renal
BT-549 breast = test system: BT-549 breast
CAKI-1 renal = test system: CAKI-1 renal
CCRF-CEM leukemia = test system: CCRF-CEM leukemia
COLO 205 colon = test system: COLO 205 colon
DU-145 prostate = test system: DU-145 prostate
EKVX NSCLC = test system: EKVX NSCLC
HCC-2998 colon = test system: HCC-2998 colon
HCT-116 colon = test system: HCT-116 colon
HCT-15 colon = test system: HCT-15 colon
HL-60(TB) leukemia = test system: HL-60(TB) leukemia
HOP-62 NSCLC = test system: HOP-62 NSCLC
HOP-92 NSCLC = test system: HOP-92 NSCLC
HS 578T breast = test system: HS 578T breast
HT29 colon = test system: HT29 colon
IGROV1 ovarian = test system: IGROV1 ovarian
K-562 leukemia = test system: K-562 leukemia
KM12 colon = test system: KM12 colon
LOX IMVI melanoma = test system: LOX IMVI melanoma
M14 melanoma = test system: M14 melanoma
MALME-3M melanoma = test system: MALME-3M melanoma
MCF7 breast = test system: MCF7 breast
MDA-MB-231 breast = test system: MDA-MB-231 breast
MDA-MB-435 = test system: MDA-MB-435
MDA-N = test system: MDA-N
MOLT-4 leukemia = test system: MOLT-4 leukemia
NCI-H226 lung = test system: NCI-H226 lung
NCI-H23 lung = test system: NCI-H23 lung
NCI-H522 lung = test system: NCI-H522 lung
NCI/ADR-RES ovarian = test system: NCI/ADR-RES ovarian
OVCAR-3 ovarian = test system: OVCAR-3 ovarian
OVCAR-4 ovarian = test system: OVCAR-4 ovarian
OVCAR-5 ovarian = test system: OVCAR-5 ovarian
OVCAR-8 ovarian = test system: OVCAR-8 ovarian
PC-3 prostate = test system: PC-3 prostate
RPMI-8226 leukemia = test system: RPMI-8226 leukemia
RXF 393 renal = test system: RXF 393 renal
SF-268 CNS = test system: SF-268 CNS
SF-295 CNS = test system: SF-295 CNS
SF-539 CNS = test system: SF-539 CNS
SK-MEL-2 melanoma = test system: SK-MEL-2 melanoma
SK-MEL-28 melanoma = test system: SK-MEL-28 melanoma
SK-MEL-5 melanoma = test system: SK-MEL-5 melanoma
SK-OV-3 ovarian = test system: SK-OV-3 ovarian
SN12C renal = test system: SN12C renal
SNB-19 CNS = test system: SNB-19 CNS
SNB-75 CNS = test system: SNB-75 CNS
SR leukemia = test system: SR leukemia
SW-620 colon = test system: SW-620 colon
T-47D breast = test system: T-47D breast
TK-10 renal = test system: TK-10 renal
U251 CNS = test system: U251 CNS
UACC-257 melanoma = test system: UACC-257 melanoma
UACC-62 melanoma = test system: UACC-62 melanoma
UO-31 renal = test system: UO-31 renal

`O=c1[nH]nc(Cc2ccccc2)n1/N=C\CC/C=N\n1c(Cc2ccccc2)n[nH]c1=O` was tested, and the TGI (786-0 renal) was greater than 100 µM, the TGI (A498 renal) was greater than 100 µM and the TGI (A549 NSCLC) was greater than 100 µM. For the same molecule, the TGI (ACHN renal) was greater than 100 µM, the TGI (BT-549 breast) was greater than 100 µM and the TGI (CAKI-1 renal) was greater than 100 µM. For the same molecule, the TGI (CCRF-CEM leukemia) was greater than 100 µM, the TGI (COLO 205 colon) was greater than 100 µM and the TGI (DU-145 prostate) was greater than 100 µM. The TGI (EKVX NSCLC) was greater than 100 µM, the TGI (HCC-2998 colon) was greater than 100 µM and the TGI (HCT-116 colon) was 48.7 µM. It also gave a TGI (HCT-15 colon) of 75 µM, a TGI (HL-60(TB) leukemia) greater than 100 µM and a TGI (HOP-62 NSCLC) of 88.4 µM. For the same molecule, the TGI (HOP-92 NSCLC) was greater than 100 µM, the TGI (HS 578T breast) was 53.1 µM and the TGI (HT29 colon) was 83.3 µM. The TGI (IGROV1 ovarian) was 40.7 µM, the TGI (K-562 leukemia) was greater than 100 µM and the TGI (KM12 colon) was greater than 100 µM. For the same molecule, the TGI (LOX IMVI melanoma) was greater than 100 µM, the TGI (M14 melanoma) was greater than 100 µM and the TGI (MALME-3M melanoma) was 77.7 µM. It also gave a TGI (MCF7 breast) greater than 100 µM, a TGI (MDA-MB-231 breast) greater than 100 µM and a TGI (MDA-MB-435) greater than 100 µM. It also gave a TGI (MDA-N) greater than 100 µM, a TGI (MOLT-4 leukemia) greater than 100 µM and a TGI (NCI-H226 lung) of 83.1 µM. The TGI (NCI-H23 lung) was 66.6 µM, the TGI (NCI-H522 lung) was greater than 100 µM and the TGI (NCI/ADR-RES ovarian) was 41.5 µM. The TGI (OVCAR-3 ovarian) was greater than 100 µM, the TGI (OVCAR-4 ovarian) was greater than 100 µM and the TGI (OVCAR-5 ovarian) was greater than 100 µM. It also gave a TGI (OVCAR-8 ovarian) of 58.9 µM, a TGI (PC-3 prostate) greater than 100 µM and a TGI (RPMI-8226 leukemia) of 80.9 µM. It also gave a TGI (RXF 393 renal) of 72.5 µM, a TGI (SF-268 CNS) of 77.7 µM and a TGI (SF-295 CNS) greater than 100 µM. It also gave a TGI (SF-539 CNS) of 66.3 µM, a TGI (SK-MEL-2 melanoma) of 90.3 µM and a TGI (SK-MEL-28 melanoma) greater than 100 µM. The TGI (SK-MEL-5 melanoma) was greater than 100 µM, the TGI (SK-OV-3 ovarian) was greater than 100 µM and the TGI (SN12C renal) was greater than 100 µM. For the same molecule, the TGI (SNB-19 CNS) was greater than 100 µM, the TGI (SNB-75 CNS) was 58.7 µM and the TGI (SR leukemia) was greater than 100 µM. It also gave a TGI (SW-620 colon) greater than 100 µM, a TGI (T-47D breast) greater than 100 µM and a TGI (TK-10 renal) greater than 100 µM. It also gave a TGI (U251 CNS) greater than 100 µM, a TGI (UACC-257 melanoma) greater than 100 µM and a TGI (UACC-62 melanoma) of 46.6 µM. The TGI (UO-31 renal) was greater than 100 µM.
